The subject of data set [1] is HCT-116 tumors. Nature of the data set: Tumor inhibition in HCT-116 cell xenograft model. The class given is in vivo, male nude mice. The note with it: i.v. every third day for two weeks, NIC 5 mg/kg, CP—NIC 20 mg/kg NIC-equivalent, n=8. The procedure:
Prior to in vivo implantation, HCT116 cells were washed twice in Minimum Essential Media (MEM) (51200-038; Invitrogen; Carlsbad, Calif.). HCT116 cells were implanted in the right flank of male nude mice by subcutaneous injection of 1-2×10^6 cells in 50 μL. All animals were treated in accordance with National Institute of Health Guide for the Care and Use of Laboratory Animals under protocols approved by the Duke University Institutional Animal Care and Use Committee.
(§1) Controls or drugs were administered by tail vein infusion (50 μL/min) of 500 μL. […] Tumor dimensions and BW were measured 3-4 times a week, and the tumor volume was calculated according to Volume [mm^3]=length×width×depth×½.
(§2) Mice were monitored for BW loss, and euthanized upon exceeding 15% loss in BW or if their tumors grew to a volume greater than 1000 mm3. The maximum tolerated dose (MTD) was determined in mice with tumors. Cumulative survival curves were compared using Kaplan-Meier analysis, and the Sidak test, Tukey Test and Wilcoxon test were calculated using GraphPad Prism 6 software.
Body-weight loss was also measured throughout the treatment of free NIC and CP—NIC conjugate. All treatments were tolerated for the period of the study (FIG. 11). […] It was hypothesized that the mechanism of action of NIC released from nanoparticles in this study is the same as free NIC as previously characterized.

Data set [2] deals with Wnt/β-catenin signaling in HCT-116 cells. Nature of the data set: Western blot of Wnt signaling (cytosolic β-catenin, c-myc, cyclin D1). The class given is cell-based, human. The note with it: HCT116, western blotting. The procedure:
Western blots were performed following a procedure similar to that reported previously (Osada et al., Cancer Res., 2011, 71, 4172-4182). […] After treatment, the cytosolic fraction was isolated as previously described (Chen et al., Biochemistry, 2009, 48, 10267-10274). Immunoblot was used to detect the 3-catenin, c-myc and cyclin D1 protein levels in cytosol, with β-actin immunoblots used for loading control.
Wnt signaling activity was quantified as cytosolic β-catenin level by Western blot.
For orientation: In western blotting, separated proteins are transferred to a membrane and probed.

A short description of data set [3]: in vivo. The settings on record: iv. The procedure:
Blood samples were obtained 0.5 h prior to dosing and at 0.08, 0.17, 0.33, 0.67, 1.5, 4, 8, 12, 24 hours after drug administration (n=4 per time point).
Blood samples were obtained at 0.5 h prior to the dosing and at 0.08, 0.17, 0.33, 0.67, 1.5, 4, 8, 12, and 24 h after drug administration.

For data set [4] the following is noted: free drug solution at 200 mg/kg BW; cited from earlier work.
Data set [5] has as its system HCT116 human colon carcinoma cells. Nature of the data set: In vitro cell proliferation (MTS assay). The class given is cell-based. The settings on record: HCT-116, read-out: IC50, concentration of NIC (or NIC equivalent) to inhibit proliferation of cells by 50%, HCT116, 72 hours of exposure.
Method: HCT116 human colon carcinoma cells were purchased from American Type Culture Collection (Manassas, Va., USA) and maintained in McCoy's 5A medium supplemented with 10% fetal bovine serum (FBS, Atlanta Biologicals, Lawrenceville, Ga., USA), 200 U/ml penicillin, and 50 ng/ml streptomycin (Invitrogen, Grand island, NY, USA). Cells were grown at 37° C. in 5% CO2. The cells were plated at 5,000 cells per well into 96 well plates and treated with compounds (n=3) for 48 hours, at which point the cell proliferation was measured using the colorimetric MTS assay (Promega, Madison, Wis., USA). Values were normalized as a percentage of DMSO treated cells. The dose response data were fit with sigmoidal dose-response using Graphpad Prism.
Data set [6] deals with tumor cell lines from multiple tumor types. The note with it: breast, lung, prostate, ovary, blood, pancreas, colon tumor cell lines; read-out: IC50 range, inhibition of proliferation of tumor cell lines; cited from earlier work.
The nature of data set [7]: Dose escalation / tolerability in mice bearing subcutaneous HCT116 tumors. The settings on record: male, nude, mouse, in vivo, intravenous, 5 mg/kg BW; mice with tumors, 3 days/week for 2 weeks, tail vein infusion; read-out: maximum tolerated dose. The procedure:
as §1, §2

Data set [8] is described as follows: Pilot study, LD50 of NIC formulated in DMA/PEG 400. The settings on record: nude, mouse, in vivo. More on the design: species or system nude mice.

A word on the MRT inf: it is a mean duration of stay, worked out from the concentration-time curve. A word on the MRT last: it is the average time that molecules of a dose stay in the body. As usually defined, the Tmax is the time at which the peak concentration occurs. Usually half-life stands for how long it takes for the measured level to halve. A high value points to slow loss. A word on the Cmax: it is the highest concentration seen after dosing. As a reminder, the LD50 is the dose expected to kill half of the subjects tested. Take `O=C(Nc1ccc([N+](=O)[O-])cc1Cl)c1cc(Cl)ccc1O` [NIC, Niclosamide]: in data set [1] (Kaplan-Meier), the median survival time worked out at 16 days. In addition, in data set [1] (ten days after start of treatment), the mean tumor volume was found to be 661 mm3. The “levels of Wnt target proteins c-myc and cyclin D1” value in data set [2] is “similarly reduced”. In data set [3] (CD1, mouse), the “% AUC-inf extrapolated (AUC-last/AUC-inf) * 100” value was 0.33 ± 0.45%, the MRT inf was 54 ± 28.8 min, the mean residence time MRT last was found to be 54 ± 26.4 min and the Tmax came out at 12 ± 10.2 min. This compound also had a half-life in data set [3] (CD1, mouse) of 60 ± 13.2 min. The Cmax in data set [3] (CD1, mouse, 128 mg/kg) worked out at 6200 ± 4230 ng/mL. Besides, in data set [3] (mouse), the “Vss (=CL × MRT; overall distrib. Volume at steay state)” value is listed as 0.7 ± 0.28 L (per kg BW). In data set [4], the “time plasma levels of NIC were above the IC50 for Wnt inhibition” value is “less than 1 h”. The IC50 in data set [5] was 850 nM. Besides, the IC50 in data set [6] is 130 to 4000 nM. The MTD at 2 weeks in data set [7] was 5 mg/kg. Besides, the 50% lethal dose (LD50) in data set [8] stood at 5 mg/kg.

The values above are taken from patent publication US20190083638A1, “NICLOSAMIDE-CONJUGATED POLYPEPTIDE NANOPARTICLES” (priority 2017, published 2019).
